Test results from publication PMC3913652 (PLoS ONE, 2014).

What was measured:
rat GLP-1 receptor = target: T1, rat GLP-1 receptor (Rattus norvegicus, UniProt P32301); assay: GLP-1 receptor functional assay (cAMP); assay type: cell-based; details: 6–23 clone 6 cells, HBSS 0.1% BSA, 250 µM IBMX, 30 minutes, quadruplicates
T1 construct: 6–23 clone 6 cells endogenously expressing the rat GLP-1 receptor; endogenous in cells; host or cells: 6-23 clone 6 cells
T1 sequence (P32301 22-463): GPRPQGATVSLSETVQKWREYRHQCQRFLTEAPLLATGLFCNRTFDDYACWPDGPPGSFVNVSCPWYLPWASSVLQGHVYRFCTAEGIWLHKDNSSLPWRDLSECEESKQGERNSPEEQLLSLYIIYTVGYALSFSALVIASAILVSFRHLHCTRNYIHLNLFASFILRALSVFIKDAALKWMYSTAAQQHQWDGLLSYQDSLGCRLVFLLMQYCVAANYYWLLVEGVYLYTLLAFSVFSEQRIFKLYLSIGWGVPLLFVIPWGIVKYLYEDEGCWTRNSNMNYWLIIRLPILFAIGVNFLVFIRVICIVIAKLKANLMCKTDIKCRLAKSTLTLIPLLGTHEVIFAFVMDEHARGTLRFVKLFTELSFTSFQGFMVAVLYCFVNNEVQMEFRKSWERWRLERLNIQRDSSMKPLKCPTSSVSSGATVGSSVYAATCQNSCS
Experimental: Following 30 minutes incubation, the cAMP was measured using the cAMP Dynamic 2 assay (Cisbio US, Bedford, MA) as per the manufacturer’s instructions. cAMP was detected by a decrease in time-resolved fluorescence energy transfer using a GeniousPro plate reader (Tecan US, San Jose, CA).
Results are presented as means ± SEM, graphed and analyzed using GraphPad Prism 5®. The potency of peptides in the in vitro functional assay and in an OGTT was determined by the analysis of concentration-response curves using non-linear regression analysis.

[1] = Stability in pancreatic digestive enzyme mix; assay type: in vitro ADME; details: 50 mM phosphate buffer pH 6.8, peptide 30 mM, 20:1 peptide to pancreatic mixture, 37°C, reverse-phase HPLC, AUC 0–2 h as % remaining vs stable control ± SEM, n = 3 (exenatide, [Leu^14]exenatide-ABP n = 2)
Experimental: Stability of peptides was also assessed in a mixture of amylase, lipase and protease (pancreatin, Cat.# P7545-25 g, Sigma-Aldrich, St. Louis, MO), which are digestive enzymes produced by pancreatic exocrine cells. Peptides (30 mM) in 50 mM phosphate buffer (pH 6.8) and citrate buffers (pH 4 & pH 5) were incubated for 2 hours in pancreatic mixture at 37°C (20∶1 ratio of peptide to pancreatic mixture) (n = 3). The enzymatic reaction was stopped with the addition of 0.2 N HCl (final concentration of peptide 10 mM) at each time point.

## CC[C@H](C)[C@H](NC(=O)[C@H](Cc1c[nH]cn1)NC(=O)[C@H](CC(C)C)NC(=O)[C@H](CCCCN)NC(=O)[C@H](CC(C)C)NC(=O)[C@H](C)NC(=O)[C@H](CCC(=O)O)NC(=O)[C@@H](NC(=O)CNC(=O)[C@H](CCC(=O)O)NC(=O)[C@@H](NC(=O)[C@@H](NC(=O)[C@H](CCCCN)NC(=O)[C@H](C)NC(=O)[C@H](CCCCN)NC(=O)[C@H](CC(N)=O)NC(=O)[C@@H](NC(=O)[C@H](CC(C)C)NC(=O)[C@H](CCCNC(=N)N)NC(=O)[C@H](CCCCN)NC(=O)[C@H](Cc1ccc(O)cc1)NC(=O)[C@H](Cc1ccccc1)NC(=O)[C@H](CC(=O)O)NC(=O)[C@H](CO)NC(=O)[C@@H](NC(=O)CNC(=O)[C@H](Cc1ccc(O)cc1)NC(=O)[C@H](CCCCN)NC(=O)[C@H](CC(=O)O)NC(=O)[C@H](CC(C)C)NC(=O)[C@H](CCC(=O)O)NC(=O)[C@H](CCCNC(=N)N)NC(=O)[C@H](CC(N)=O)NC(=O)[C@H](C)NC(=O)[C@H](CC(C)C)NC(=O)[C@@H](NC(=O)[C@H](CCCCN)NC(=O)[C@H](C)NC(=O)[C@H](CCC(=O)O)NC(=O)[C@H](C)NC(=O)[C@@H](N)CC(C)C)C(C)C)C(C)C)[C@@H](C)CC)[C@@H](C)O)C(C)C)C(C)C)C(=O)N[C@@H](CC(C)C)C(=O)N[C@@H](C)C(=O)N[C@@H](C)C(=O)N[C@@H](CC(C)C)C(=O)N1CCC[C@H]1C(=O)O [ABD035]
Rat GLP-1 receptor
  GLP-1 Receptor Functional Assay EC50: not active
[1]
  2 h Stability in Pancreatin Mix (%) pH 6.8: 10±2%
